Laboratory results taken from paper PMC3264873 (Pharmaceutical Research, 2011).
Values joined by “and” are separate entries in the source; they are usually repeats but may differ in a detail not shown here. Equal values may be shown once. Read-outs that look alike come from different tables or passages of the source. One block for each compound: values may come before it.

How the values were obtained:
OATP1B1 [1] = molecular target: T1, OATP1B1 (Homo sapiens, UniProt Q9Y6L6); assay: Screening for inhibition of OATP1B1-mediated estradiol-17β-glucuronide uptake; settings: 20 μM test compound
T1 sequence (Q9Y6L6 1-691): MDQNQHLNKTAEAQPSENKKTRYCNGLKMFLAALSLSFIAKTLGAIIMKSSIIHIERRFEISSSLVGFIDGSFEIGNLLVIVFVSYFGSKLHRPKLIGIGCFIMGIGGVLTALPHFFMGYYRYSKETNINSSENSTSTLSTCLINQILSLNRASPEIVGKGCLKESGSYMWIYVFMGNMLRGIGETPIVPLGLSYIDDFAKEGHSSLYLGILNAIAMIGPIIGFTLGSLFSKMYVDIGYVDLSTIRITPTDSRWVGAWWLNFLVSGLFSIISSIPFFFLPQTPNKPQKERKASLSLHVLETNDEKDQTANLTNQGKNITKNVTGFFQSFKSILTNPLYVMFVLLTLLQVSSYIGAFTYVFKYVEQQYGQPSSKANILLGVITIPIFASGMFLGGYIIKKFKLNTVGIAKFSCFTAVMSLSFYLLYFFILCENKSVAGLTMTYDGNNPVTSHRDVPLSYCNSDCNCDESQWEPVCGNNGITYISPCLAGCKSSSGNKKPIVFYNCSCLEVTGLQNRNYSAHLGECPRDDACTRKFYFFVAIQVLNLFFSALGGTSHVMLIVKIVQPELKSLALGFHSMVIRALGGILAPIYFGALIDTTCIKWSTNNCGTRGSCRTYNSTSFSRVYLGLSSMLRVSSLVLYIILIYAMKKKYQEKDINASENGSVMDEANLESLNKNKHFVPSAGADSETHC

OATP1B1 [2] = molecular target: T1, OATP1B1; assay: Concentration-dependent inhibition of OATP1B1-mediated atorvastatin uptake; type: cell-based
OATP1B1 [3] = molecular target: T1, OATP1B1; assay: Calculation of R-values; settings: for R-value E: ka = 0.03, Fa published value (lopinavir Fa = 1); for Range of the eight R-values A–H: all eight calculation variants; for Average (mean) R-value: mean of the eight R-values A–H
[4] = cited from earlier work; for Imax, maximum systemic plasma concentration of the inhibitor: amprenavir recalculated from fosamprenavir data, ref [23]–[28]; for Fa, fraction of the inhibitor dose absorbed (maximum oral bioavailability): ref [23]–[25]
OATP1B1 [5] = molecular target: T1, OATP1B1; assay: Michaelis-Menten uptake kinetics in HEK293 cells stably expressing OATP1B1; type: cell-based
OATP1B1 [6] = molecular target: T1, OATP1B1; settings: IC50 from another study and cell system; ref [3]; cited from earlier work

Classification as OATP1B1 inhibitor (more than 50% inhibition of E17βG uptake) (OATP1B1 [1]): inhibitors
Structure (SMILES): CNC(=O)c1cccnc1 [N-methylnicotinamide]

Classification as OATP1B1 inhibitor (more than 50% inhibition of E17βG uptake) (OATP1B1 [1]): classified as OATP1B1 inhibitors
Structure (SMILES): CN(CCOc1ccc(CC2SC(=O)NC2=O)cc1)c1ccccn1 (stereo not shown) [Rosiglitazone]

Classification as OATP1B1 inhibitor (more than 50% inhibition of E17βG uptake) (OATP1B1 [1]): inhibitors
Structure (SMILES): COC(=O)C1=C(C)NC(C)=C(C(=O)OCCN(C)Cc2ccccc2)C1c1cccc([N+](=O)[O-])c1 (stereo not shown) [Nicardipine]

Classification as OATP1B1 inhibitor (more than 50% inhibition of E17βG uptake) (OATP1B1 [1]): inhibitors
Structure (SMILES): CCC[C@@]1(CCc2ccccc2)CC(O)=C([C@H](CC)c2cccc(NS(=O)(=O)c3ccc(C(F)(F)F)cn3)c2)C(=O)O1 [Tipranavir]

Classification as OATP1B1 inhibitor (more than 50% inhibition of E17βG uptake) (OATP1B1 [1]): inhibitors
Structure (SMILES): C[C@H](CCC(=O)NCCS(=O)(=O)O)[C@H]1CC[C@H]2[C@@H]3[C@H](O)C[C@@H]4C[C@H](O)CC[C@]4(C)[C@H]3CC[C@]12C [Taurochenodeoxycholate]

Classification as OATP1B1 inhibitor (more than 50% inhibition of E17βG uptake) (OATP1B1 [1]): inhibitors
Structure (SMILES): C[C@H](CCC(=O)NCCS(=O)(=O)O)[C@H]1CC[C@H]2[C@@H]3CC[C@@H]4C[C@H](O)CC[C@]4(C)[C@H]3C[C@H](O)[C@]12C [Taurodeoxycholate]

Second part, the compound before the results:

Structure (SMILES): C[C@H](CCC(=O)NCC(=O)O)[C@H]1CC[C@H]2[C@@H]3CC[C@@H]4C[C@H](O)CC[C@]4(C)[C@H]3C[C@H](O)[C@]12C [Glycodeoxycholate]
Classification as OATP1B1 inhibitor (more than 50% inhibition of E17βG uptake) (OATP1B1 [1]): inhibitors

Structure (SMILES): CC(C)CN(C[C@@H](O)[C@H](Cc1ccccc1)NC(=O)O[C@H]1CCOC1)S(=O)(=O)c1ccc(N)cc1 [Amprenavir]
Ki (OATP1B1 [2]): 9520 nM
R-value B (OATP1B1 [3]; Eq. 2 (IC50), ka = 0.03, Fa = 1, International Transporter Consortium method): 1.21
R-value D (OATP1B1 [3]; Eq. 2 (IC50), ka = 0.1, Fa = 1): 1.54
R-value C (OATP1B1 [3]; Eq. 2 (IC50), ka = 0.1, Fa published value (lopinavir Fa = 1)): 1.49
R-value F (OATP1B1 [3]; Eq. 3 (Ki), ka = 0.03, Fa = 1): 1.37
R-value E (OATP1B1 [3]; Eq. 3 (Ki)): 1.34
R-value H (OATP1B1 [3]; Eq. 3 (Ki), ka = 0.1, Fa = 1, Hirano et al. method): 1.95
R-value G (OATP1B1 [3]; Eq. 3 (Ki), ka = 0.1, Fa published value (lopinavir Fa = 1)): 1.87
Range of the eight R-values A–H (OATP1B1 [3]): 1.19–1.95 and < 2
Average (mean) R-value (OATP1B1 [3]): 1.49
Imax, maximum systemic plasma concentration of the inhibitor [4]: 11.2 µM
Fa, fraction of the inhibitor dose absorbed (maximum oral bioavailability) [4]: 0.9

Structure (SMILES): CCOc1nc2cccc(C(=O)O)c2n1Cc1ccc(-c2ccccc2-c2nnn[nH]2)cc1 [Candesartan]
Classification as OATP1B1 inhibitor (more than 50% inhibition of E17βG uptake) (OATP1B1 [1]): inhibitors

Structure (SMILES): C[C@]12CC[C@@H]3c4ccc(O)cc4CC[C@H]3[C@@H]1CC[C@@H]2O[C@@H]1O[C@H](C(=O)O)[C@@H](O)[C@H](O)[C@H]1O [Estradiol-17-β-glucuronide]
Vmax of OATP1B1-mediated uptake (OATP1B1 [5]; E17βG 1–200 μM, 96-well plates, HEK293-OATP1B1): 1.37 (± 0.12) pmol/min/mg protein
Uptake in OATP1B1 cells relative to mock-transfected cells (OATP1B1 [5]; at 5 min (E17βG) and 2 min (atorvastatin)): at least 8 times

Structure (SMILES): CC(=O)Oc1ccc2c(c1)Oc1cc(OC(C)=O)ccc1C21OC(=O)c2cc(C(=O)O)ccc21 [5-CFDA]
Classification as OATP1B1 inhibitor (more than 50% inhibition of E17βG uptake) (OATP1B1 [1]): inhibitors

Structure (SMILES): Nc1ncnc2c1ncn2CCOCP(=O)(O)O [Adefovir]
Classification as OATP1B1 inhibitor (more than 50% inhibition of E17βG uptake) (OATP1B1 [1]): inhibitors

Structure (SMILES): C[C@@H]1[C@H](O)[C@@H](C)/C=C/C=C/CC/C=C/C=C/C=C/C=C/C(O[C@H]2O[C@H](C)[C@@H](O)[C@H](N)[C@@H]2O)CC2O[C@](O)(CC(O)C(O)CCC(O)CC(O)CC(O)CC(=O)O[C@H]1C)CC(O)C2C(=O)O (stereo partly shown) [Nystatin]
Classification as OATP1B1 inhibitor (more than 50% inhibition of E17βG uptake) (OATP1B1 [1]): inhibitors

Structure (SMILES): Cc1cccc(C)c1OCC(=O)N[C@@H](Cc1ccccc1)[C@@H](O)C[C@H](Cc1ccccc1)NC(=O)[C@H](C(C)C)N1CCCNC1=O [Lopinavir]
IC50 (OATP1B1 [2]): 740 nM
Ki (OATP1B1 [2]): 320 nM
R-value B (OATP1B1 [3]): 1.76
R-value C (OATP1B1 [3]): 2.56
R-value D (OATP1B1 [3]): 2.56
R-value F (OATP1B1 [3]): 2.74
R-value G (OATP1B1 [3]): 4.58
R-value H (OATP1B1 [3]): 4.58
R-value E (OATP1B1 [3]; Eq. 3 (Ki)): 2.74
Range of the eight R-values A–H (OATP1B1 [3]): 1.76–4.58
Average (mean) R-value (OATP1B1 [3]): 2.91
R-value B calculated in the literature (OATP1B1 [6]): 9.2

Structure (SMILES): COC(=O)N[C@H](C(=O)N[C@@H](Cc1ccccc1)[C@@H](O)CN(Cc1ccc(-c2ccccn2)cc1)NC(=O)[C@@H](NC(=O)OC)C(C)(C)C)C(C)(C)C [Atazanavir]
IC50 (OATP1B1 [2]): 1610 nM
Ki (OATP1B1 [2]): 910 nM
R-value B (OATP1B1 [3]): 2.38
R-value C (OATP1B1 [3]): 3.63
R-value D (OATP1B1 [3]): 4.68
R-value F (OATP1B1 [3]): 3.43
R-value G (OATP1B1 [3]): 5.64
R-value H (OATP1B1 [3]): 7.49
R-value E (OATP1B1 [3]; Eq. 3 (Ki)): 2.87
Average (mean) R-value (OATP1B1 [3]): 4.02
Imax, maximum systemic plasma concentration of the inhibitor [4]: 4.47 µM
Fa, fraction of the inhibitor dose absorbed (maximum oral bioavailability) [4]: 0.68
